Values of other authors, collected in publication PMC8513935.

Key:
[1] = experimental, compiled by the authors from the literature (the ESI cites the sources)
[2] = log P octanol/water from commercial databases, averaged (the ESI); conditions: Octanol (wet), 25 C
[3] = derived by the authors as gas->solvent minus gas->water (a hypothetical dry solvent; the ESI), not a two-phase measurement

In the case of `CCCNCCC`, the log K of transfer, gas to solvent ([1]; Benzene, 25 C) is listed as 3.73 log10 K, the log K of transfer, gas to solvent ([1]; Hexadecane, 25 C) is listed as 3.35 log10 K and the log K of transfer, gas to solvent ([1]; Toluene, 25 C) is listed as 3.84 log10 K. The log K of transfer, gas to solvent ([1]; Water, 25 C) was 2.68 log10 K, the log K of transfer, water to solvent [2] was 1.67 log10 K and the log K of transfer, water to solvent ([3]; Benzene, 25 C) was 1.05 log10 K. For the same compound, the log K of transfer, water to solvent ([3]; Hexadecane, 25 C) was 0.671 log10 K and the log K of transfer, water to solvent ([3]; Toluene, 25 C) was 1.16 log10 K.
In the case of `C=CCCCCCC`, the log K of transfer, gas to solvent ([1]; Butyronitrile, 25 C) is given as 3.31 log10 K, the log K of transfer, gas to solvent ([1]; Hexadecane, 25 C) is given as 3.57 log10 K and the log K of transfer, gas to solvent ([1]; Octan-1-ol, 25 C) is given as 3.35 log10 K. The log K of transfer, gas to solvent ([1]; Propionitrile, 25 C) was 3.32 log10 K, the log K of transfer, gas to solvent ([1]; Water, 25 C) was -1.41 log10 K and the log K of transfer, water to solvent [2] was 4.57 log10 K. For the same compound, the log K of transfer, water to solvent ([3]; Butyronitrile, 25 C) was 4.72 log10 K, the log K of transfer, water to solvent ([3]; Hexadecane, 25 C) was 4.98 log10 K and the log K of transfer, water to solvent ([3]; Octan-1-ol(dry), 25 C) was 4.76 log10 K. The log K of transfer, water to solvent ([3]; Propionitrile, 25 C) was 4.73 log10 K.
In the case of `c1ccc2cc3ccccc3cc2c1`, the log K of transfer, gas to solvent ([1]; 2-Methylpropan-1-ol, 25 C) is listed as 7.16 log10 K, the log K of transfer, gas to solvent ([1]; 2-Methylpropan-2-ol, 25 C) is listed as 7.12 log10 K and the log K of transfer, gas to solvent ([1]; 3-Methylbutan-1-ol, 25 C) is listed as 7.28 log10 K. The log K of transfer, gas to solvent ([1]; Acetonitrile, 25 C) was 7.66 log10 K, the log K of transfer, gas to solvent ([1]; Benzene, 25 C) was 8.38 log10 K and the log K of transfer, gas to solvent ([1]; Butan-1-ol, 25 C) was 7.42 log10 K. The log K of transfer, gas to solvent ([1]; Butan-2-ol, 25 C) was 7.26 log10 K, the log K of transfer, gas to solvent ([1]; Butanone, 25 C) was 8.32 log10 K and the log K of transfer, gas to solvent ([1]; Butyronitrile, 25 C) was 8.17 log10 K. The log K of transfer, gas to solvent ([1]; CCl4, 25 C) was 8.17 log10 K, the log K of transfer, gas to solvent ([1]; Chlorobenzene, 25 C) was 8.45 log10 K and the log K of transfer, gas to solvent ([1]; Chloroform, 25 C) was 8.4 log10 K. The log K of transfer, gas to solvent ([1]; Cyclohexane, 25 C) was 7.52 log10 K, the log K of transfer, gas to solvent ([1]; Cyclohexanone, 25 C) was 8.53 log10 K and the log K of transfer, gas to solvent ([1]; Decan-1-ol, 25 C) was 7.71 log10 K. For the same compound, the log K of transfer, gas to solvent ([1]; Di-n-butyl ether, 25 C) was 7.79 log10 K, the log K of transfer, gas to solvent ([1]; Dichloromethane, 25 C) was 8.62 log10 K and the log K of transfer, gas to solvent ([1]; Diethyl Ether, 25 C) was 7.97 log10 K. The log K of transfer, gas to solvent ([1]; Ethanol, 25 C) was 7.62 log10 K, the log K of transfer, gas to solvent ([1]; Heptan-1-ol, 25 C) was 7.58 log10 K and the log K of transfer, gas to solvent ([1]; Hexadecane, 25 C) was 7.56 log10 K. For the same compound, the log K of transfer, gas to solvent ([1]; Hexan-1-ol, 25 C) was 7.53 log10 K, the log K of transfer, gas to solvent ([1]; Hexane, 25 C) was 7.45 log10 K and the log K of transfer, gas to solvent ([1]; Methanol, 25 C) was 7.25 log10 K. For the same compound, the log K of transfer, gas to solvent ([1]; Octan-1-ol, 25 C) was 7.55 log10 K, the log K of transfer, gas to solvent ([1]; Pentan-1-ol, 25 C) was 7.46 log10 K and the log K of transfer, gas to solvent ([1]; Propan-1-ol, 25 C) was 7.36 log10 K. For the same compound, the log K of transfer, gas to solvent ([1]; Propan-2-ol, 25 C) was 7.36 log10 K, the log K of transfer, gas to solvent ([1]; Propanone, 25 C) was 8.22 log10 K and the log K of transfer, gas to solvent ([1]; Propionitrile, 25 C) was 8.07 log10 K. For the same compound, the log K of transfer, gas to solvent ([1]; Tetrahydrofuran, 25 C) was 8.71 log10 K, the log K of transfer, gas to solvent ([1]; Toluene, 25 C) was 8.3 log10 K and the log K of transfer, gas to solvent ([1]; Water, 25 C) was 3.03 log10 K. For the same compound, the log K of transfer, water to solvent [2] was 4.45 log10 K, the log K of transfer, water to solvent ([3]; 2-Methylpropan-1-ol, 25 C) was 4.13 log10 K and the log K of transfer, water to solvent ([3]; 2-Methylpropan-2-ol, 25 C) was 4.09 log10 K. The log K of transfer, water to solvent ([3]; 3-Methylbutan-1-ol, 25 C) was 4.25 log10 K, the log K of transfer, water to solvent ([3]; Acetone, 25 C) was 5.19 log10 K and the log K of transfer, water to solvent ([3]; Acetonitrile, 25 C) was 4.63 log10 K. For the same compound, the log K of transfer, water to solvent ([3]; Benzene, 25 C) was 5.35 log10 K, the log K of transfer, water to solvent ([3]; Butan-1-ol, 25 C) was 4.39 log10 K and the log K of transfer, water to solvent ([3]; Butan-2-ol, 25 C) was 4.23 log10 K. For the same compound, the log K of transfer, water to solvent ([3]; Butanone, 25 C) was 5.29 log10 K, the log K of transfer, water to solvent ([3]; Butyronitrile, 25 C) was 5.14 log10 K and the log K of transfer, water to solvent ([3]; CCl4, 25 C) was 5.14 log10 K. For the same compound, the log K of transfer, water to solvent ([3]; Chlorobenzene, 25 C) was 5.42 log10 K, the log K of transfer, water to solvent ([3]; Chloroform, 25 C) was 5.37 log10 K and the log K of transfer, water to solvent ([3]; Cyclohexane, 25 C) was 4.49 log10 K. For the same compound, the log K of transfer, water to solvent ([3]; Cyclohexanone, 25 C) was 5.5 log10 K, the log K of transfer, water to solvent ([3]; Decan-1-ol, 25 C) was 4.68 log10 K and the log K of transfer, water to solvent ([3]; Di-n-butyl ether, 25 C) was 4.76 log10 K. For the same compound, the log K of transfer, water to solvent ([3]; Dichloromethane, 25 C) was 5.59 log10 K, the log K of transfer, water to solvent ([3]; Diethyl Ether, 25 C) was 4.94 log10 K and the log K of transfer, water to solvent ([3]; Ethanol, 25 C) was 4.59 log10 K. For the same compound, the log K of transfer, water to solvent ([3]; Heptan-1-ol, 25 C) was 4.55 log10 K, the log K of transfer, water to solvent ([3]; Hexadecane, 25 C) was 4.54 log10 K and the log K of transfer, water to solvent ([3]; Hexan-1-ol, 25 C) was 4.5 log10 K. The log K of transfer, water to solvent ([3]; Hexane, 25 C) was 4.42 log10 K, the log K of transfer, water to solvent ([3]; Methanol, 25 C) was 4.22 log10 K and the log K of transfer, water to solvent ([3]; Octan-1-ol(dry), 25 C) was 4.52 log10 K. The log K of transfer, water to solvent ([3]; Pentan-1-ol, 25 C) was 4.43 log10 K, the log K of transfer, water to solvent ([3]; Propan-1-ol, 25 C) was 4.33 log10 K and the log K of transfer, water to solvent ([3]; Propan-2-ol, 25 C) was 4.33 log10 K. The log K of transfer, water to solvent ([3]; Propionitrile, 25 C) was 5.04 log10 K, the log K of transfer, water to solvent ([3]; Tetrahydrofuran, 25 C) was 5.68 log10 K and the log K of transfer, water to solvent ([3]; Toluene, 25 C) was 5.27 log10 K.
